For the experiment, the target named is Vasopressin V2 (Rattus norvegicus, UniProt Q00788). The experiment is described as follows: Vasopressin V2 agonist effects in normal conscious water-loaded rats. In kind it is in vivo. Details: from tissue; host or cells: whole living Sprague-Dawley rat; the receptor is the animal's own (renal, by own knowledge). The following applies: Sprague-Dawley (CD) rats, 10 mg/kg oral; for Osmolality (% Increase): change in osmolality as percent of control; for Urine Volume (% decrease): vs. control, urine collected four hours. An excerpt: Vasopressin V2 Agonist Effects of Test Compounds in Normal Conscious Water-loaded Rats
Male or female normotensive Sprague-Dawley rats (Charles River Laboratories, Inc., Kingston, N.Y.) of 350-500 g body weight were supplied with standard rodent diet (Purina Rodent Lab. Chow 5001) and water ad libitum. On the day of test, rats were placed individually into metabolic cages equipped with devices to separate the feces from the urine and containers for collection of urine. […] The vehicle used was 20% dimethylsulfoxide (DMSO) in 2.5% preboiled corn starch. Thirty minutes after dosing the test compound, rats were gavaged with water at 30 ml/kg into the stomach using a feeding needle. During the test, rats were not provided with water or food. Urine was collected for four hours after dosing of the test compound. At the end of four hours, urine volume was measured. Urinary osmolality was determined using a Fiske One-Ten Osmometer (Fiske Associates, Norwood, Mass., 02062) or an Advanced CRYOMATIC Osmometer, Model 3C.2 (Advanced Instruments, Norwood, Mass.). Determinations of Na^+, K^+ and Cl^− ion were carried out using ion specific electrodes in a Beckman SYNCHRON EL-ISE Electrolyte System analyzer. The urinary osmolality should increase proportionally. In the screening test, two rats were used for each compound. If the difference in the urine volume of the two rats was greater than 50%, a third rat was used.

Vasopressin V2, sequence (Q00788 whole entry): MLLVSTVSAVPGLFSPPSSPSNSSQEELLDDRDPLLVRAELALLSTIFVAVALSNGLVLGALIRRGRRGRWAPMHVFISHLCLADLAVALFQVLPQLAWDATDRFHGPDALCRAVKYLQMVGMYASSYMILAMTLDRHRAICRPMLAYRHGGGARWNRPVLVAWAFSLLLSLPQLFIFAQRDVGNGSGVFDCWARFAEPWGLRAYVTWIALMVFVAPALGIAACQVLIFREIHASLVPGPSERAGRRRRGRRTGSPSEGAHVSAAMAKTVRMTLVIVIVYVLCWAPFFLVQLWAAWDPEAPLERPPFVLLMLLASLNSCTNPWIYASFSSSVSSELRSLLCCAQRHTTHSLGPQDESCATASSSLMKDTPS

With `O=C(c1ccc(-c2ccn(C(=O)C3CC3)n2)cc1)N1Cc2cccn2Cc2ccccc21` [Example 32, [4-(1-Cyclopropanecarbonyl-1H-pyrazol-3-yl)-phenyl]-(5H,11H-pyrrolo[2,1-c][1,4]benzodiazepin-10-yl)-methanone], the “Osmolality (% Increase)” value worked out at 373% and the “Urine Volume (% decrease)” value is on record as 77%.
The like results for “[2-Chloro-4-(3-methyl-4-ethynyl-phenyl) (5H,11H-pyrrolo[2,1-c][1,4]-benzodiazepin-10-yl)-methanone [Example 123]” were, in that order, 663% and 88%.
The corresponding values for `Cc1cnn(-c2ncc(C(=O)N3Cc4cccn4Cc4ccccc43)c(C(F)(F)F)n2)c1` [Example 21, [2-(4-Methyl-pyrazol-1-yl)-4-trifluoromethyl-pyrimidin-5-yl]-(5H,11H-pyrrolo[2,1-c][1,4]benzodiazepin-10-yl)-methanone] are 181% and 49%.
The like results for `Cc1n[nH]c(-c2ccc(C(=O)N3Cc4cccn4Cc4ccccc43)cc2)n1` [Example 50, [4-(5-Methyl-2H-[1,2,4]triazol-3-yl)-phenyl]-(5H,11H-pyrrolo[2,1-c][1,4]-benzodiazepin-10-yl)-methanone] were, in that order, 223% and 53%.
With `COc1cc(-n2ccc(C)n2)ccc1C(=O)N1Cc2ccc(CN(C)C)n2Cc2ccccc21` [Example 108, (3-Dimethylaminomethyl-5H,11H-pyrrolo[2,1-c][1,4]benzodiazepin-10-yl)[2-methoxy-4-(3-methyl-pyrazol-1-yl)-phenyl]-methanone], the “Osmolality (% Increase)” value is 145% and the “Urine Volume (% decrease)” value came out at 30%.
The like results for `Cc1ccn(-c2ccc(C(=O)N3Cc4cccn4Cc4ccccc43)cc2)n1` [Example 59, [4-(3-Methyl-pyrazol-1-yl)-phenyl]-(5H,11H-pyrrolo[2,1-c][1,4]-benzodiazepin-10-yl)-methanone] were, in that order, 607% and 80%.
The like results for `Cn1cc(-c2ccc(C(=O)N3Cc4cccn4Cc4ccccc43)c(Cl)c2)cn1` [Example 115, [2-Chloro-4-(1-methyl-1H-pyrazol-4-yl)phenyl) (5H,11H-pyrrolo[2,1-c][1,4]-benzodiazepin-10-yl)-methanone] were, in that order, 229% and 66%.
The corresponding values for `Cc1ccn(-c2ccc(C(=O)N3Cc4nnnn4Cc4ccccc43)c(Cl)c2)n1` [Example 117] are 311% and 68%.
Regarding `O=C(c1ccc(-n2ccc(C3CC3)n2)cc1C(F)(F)F)N1Cc2cccn2Cc2ccccc21` [Example 5, [4-(3-Cyclopropyl-pyrazol-1-yl)-2-trifluoromethy-phenyl]-(5H,11H-pyrrolo[2,1-c][1,4]benzodiazepin-10-yl)-methanone], the “Osmolality (% Increase)” value stood at 231% and the “Urine Volume (% decrease)” value is 56%.
The corresponding values for `Cc1cn(-c2ccc(C(=O)N3Cc4cccn4Cc4ccccc43)c(Cl)c2)cn1` [Example 12, [2-Chloro-4-(4-methyl-imidazol-1-yl)-phenyl]-(5H,11H-pyrrolo[2,1-c][1,4]benzodiazepin-10-yl)-methanone] are 330% and 69%.
In the case of `O=C(c1ccc(-n2cccc2)cc1Cl)N1Cc2cccn2Cc2ccccc21` [Example 15, (2-Chloro-4-pyrrol-1-yl-phenyl)-(5H,11H-pyrrolo[2,1-c][1,4]benzodiazepin-10-yl)-methanone], the “Osmolality (% Increase)” value was 38% and the “Urine Volume (% decrease)” value is reported as 47%.
The like results for `Cn1ccc(-c2ccc(C(=O)N3Cc4ccnn4Cc4ccccc43)cc2)n1` [Example 120A, [4-(1-Methyl-1H-pyrazol-3-yl)phenyl](4H,10H-pyrazolo[5,1c][1,4]-benzodiazepin-5-yl)methanone] were, in that order, 269% and 66%.
The corresponding values for `Cc1cc(C)n(-c2ccc(C(=O)N3Cc4cccn4Cc4ccccc43)cc2)n1` [Example 61, [4-(3,5-Dimethyl-pyrazol-1-yl)-phenyl]-(5H,11H-pyrrolo[2,1-c][1,4]-benzodiazepin-10-yl)-methanone] are 245% and 59%.
The like results for `Cc1nc(-c2ccc(C(=O)N3Cc4cccn4Cc4ccccc43)c(Cl)c2)n(C)n1` [Example 85, 4-[(2,5-Dimethyl-2H-[1,2,4]triazol-3-yl)-2-chloro-phenyl]-(5H,11H-pyrrolo[2,1-c][1,4]benzodiazepin-10-carbonyl)-methanone] were, in that order, 436% and 76%.
For `Cc1cnn(-c2ccc(C(=O)N3Cc4cccn4Cc4ccccc43)c(Cl)c2)c1` [Example 11], the “Osmolality (% Increase)” value was found to be 285% and the “Urine Volume (% decrease)” value was 70%.
The like results for `Cc1ccc(F)cc1C(=O)n1ccc(-c2ccc(C(=O)N3Cc4cccn4Cc4ccccc43)cc2)n1` [Example 35, {4-[1-(5-Fluoro-2-methyl-benzoyl)-1H-pyrazol-3-yl]-phenyl}-(5H,11H-pyrrolo[2,1-c][1,4]benzodiazepin-10-yl)-methanone] were, in that order, 308% and 63%.
With `O=C(c1ccc(-c2cc[nH]n2)cc1)N1Cc2cccn2Cc2ccccc21` [Example 24, [4-(1H-Pyrazol-3-yl)-phenyl]-(5H,11H-pyrrolo[2,1-c][1,4]benzodiazepin-10-yl)-methanone], the “Osmolality (% Increase)” value came out at 159% and the “Urine Volume (% decrease)” value was determined as 47%.
On to `O=C(c1ccc(-n2cccn2)cc1Cl)N1Cc2cccn2Cc2ccccc21` [Example 16, (2-Chloro-4-pyrazol-1-yl-phenyl)(5H,11H-Pyrrolo[2,1-c][1,4]benzodiazepin-10-yl)-methanone], for which the “Osmolality (% Increase)” value came out at 400% and the “Urine Volume (% decrease)” value is 88%.
The like results for `COCn1ccc(-c2ccc(C(=O)N3Cc4cccn4Cc4ccccc43)cc2)n1` [Example 29, [4-(1-methoxymethyl-1H-pyrazol-3-yl)-phenyl]-(5H,11H-pyrrolo[2,1-c][1,4]-benzodiazepin-10-yl)-methanone] were, in that order, 305% and 66%.
On to `Cc1ccn(-c2ccc(C(=O)N3Cc4ccnn4Cc4ccccc43)c(Cl)c2)n1` [Example 116, [2-Chloro-4-(3-methyl-pyrazol-1-yl)-phenyl]-(4H,10H-pyrazolo[5,1-c][1,4]-benzodiazepin-5-yl)-methanone], for which the “Osmolality (% Increase)” value is 256% and the “Urine Volume (% decrease)” value is 66%.
The like results for `O=C(c1ccc(-n2ccc(C(F)(F)F)n2)cc1Cl)N1Cc2cccn2Cc2ccccc21` [Example 13, [2-Chloro-4-(3-trifluoromethyl-pyrazol-1-yl)-phenyl]-(5H,11H-pyrrolo[2,1-c][1,4]benzodiazepin-10-yl)-methanone] were, in that order, 229% and 50%.
For `CCCCn1ccc(-c2ccc(C(=O)N3Cc4cccn4Cc4ccccc43)cc2)n1` [Example 28, [4-(1-Butyl-1H-pyrazol-3-yl)-phenyl]-(5H,11H-pyrrolo[2,1-c][1,4]-benzodiazepin-10-yl)-methanone], the “Osmolality (% Increase)” value was determined as 37% and the “Urine Volume (% decrease)” value turned out to be 75%.
The like results for `O=C(c1ccc(-n2cncn2)cc1Cl)N1Cc2cccn2Cc2ccccc21` [Example 14, [2-Chloro-4-(1,2,4-triazol-1-yl)-phenyl]-(5H,11H-pyrrolo[2,1-c][1,4]benzodiazepin-10-yl)-methanone] were, in that order, 406% and 86%.
Turning to `Cc1ccn(-c2ccc(C(=O)N3Cc4cccn4Cc4ccccc43)c(O)c2)n1` [Example 109], the “Osmolality (% Increase)” value came to 95% and the “Urine Volume (% decrease)” value was determined as 21%.
The like results for `O=C(c1ccc(F)cc1F)N1Cc2cccn2Cc2ccccc21` [Example 91, (2,4-Difluoro-phenyl)-(5H,11H-pyrrolo[2,1-c][1,4]benzodiazepin-10-yl)-methanone] were, in that order, 69% and 22%.
`O=C(c1ccc(-n2cncn2)cc1C(F)(F)F)N1Cc2cccn2Cc2ccccc21` [Example 7, (5H,11H-Pyrrolo[2,1-c][1,4]benzodiazepin-10-yl)-(4-[1,2,4]triazol-1-yl-2-trifluoromethylphenyl)-methanone]: the “Osmolality (% Increase)” value was 137% and the “Urine Volume (% decrease)” value is listed as 13%.
The corresponding values for `CCCn1ccc(-c2ccc(C(=O)N3Cc4cccn4Cc4ccccc43)cc2)n1` [Example 27, [4-(1-Propyl-1H-pyrazol-3-yl)-phenyl]-(5H,11H-pyrrolo[2,1-c][1,4]-benzodiazepin-10-yl)-methanone] are 183% and 76%.
